Data published in patent US8877734B2, “Seleny-methyluracil compounds, radiosensitizer and pharmaceutical composition using them” (Kongju National University Industry-University Cooperation …, priority 2010, dated 2014).

System: Human lung cancer cell line H460
Test: Cytotoxicity test on cancer cells (water-soluble tetrazolium salt colorimetric assay)
Format: cell-based
Conditions: for IC50: Homo sapiens, NCI-H460, H460 cells, compound alone without radiation, after a lapse of 72 hours, read-out: IC50 value, the concentration where 50% cells are killed; for cytotoxic effect when applied alone: cancer cell line H460, without the combined radiation treatment
Protocol: Human lung cancer cell line H460 was used in the present test. Firstly, the H460 cell line was cultured in RPMI 1640 medium with 100 U/mL of penicillin, […] of streptomycin and 10% FBS, under the condition of 37° C. and 5% CO2 atmosphere. The cultured cells were placed on a 96-well-plate at the initial cell density of about 2×10^3 cells. In about 24 hours, the cells on the 96-well-plate were treated with the compound 1 and the compound 7 at a designated concentration for 48 hours. The relative cell viability was quantitatively determined by a colorimetric assay using a water-soluble tetrazolium salt. Optical density at 450 nm was measured by an automatic micro plate reader. The results were represented in FIGS. 1 and 2 in the drawings attached to the present specification. As shown in the test example 1, FIG. 1 and FIG. 2, the lung cancer cell line (H460) was treated with the compound 1 (MeSe-T), then after a lapse of 72 hours, IC50 value thereof, that is the concentration where 50% cells are killed, were about 100 μM.

Compound | IC50 [µM] | cytotoxic effect when applied alone
C[Se]Cc1cn([C@H]2CC(O)[C@@H](CO)O2)c(=O)[nH]c1=O (stereo partly shown) [compound 1, 5-methylselenyl-methyl-2′-deoxy uridine] | ~100 | weak cytotoxic effect
O=c1[nH]c(=O)n([C@H]2CC(O)[C@@H](CO)O2)cc1C[Se]c1ccccc1 (stereo partly shown) [compound 7, 5-phenylselenyl-methyl-2′-deoxy uridine] | ~500 | weak cytotoxic effect
